# Tests used:
# [1] = tested on: luciferase reporter construct containing a UGA premature termination codon; experiment: cell-based luciferase reporter assay (nonsense suppression); set-up: key: Compounds which were found to have either or both very high potency and very high efficacy of protein synthesis are classified as “***”; Compounds which were found to have significant potency and/or efficacy of protein synthesis were classified as “**”; compounds which were found to have potency and/or efficacy of protein synthesis were classified as “*”; details: UGA premature termination codon luciferase reporter stably transfected in 293T Human Embryonic Kidney cells; qualitative potency/efficacy of protein synthesis; gentamicin internal standard
# Description: Activity measurements in Table 1 were performed in a cell-based luciferase reporter assay (as described in Section 4.2) comprising a luciferase reporter construct containing a UGA premature termination codon that was stably transfected in 293T Human Embryonic Kidney cells. Gentamicin, a small molecule known to allow readthrough of premature termination codons, was used as an internal standard. Activity measurements are based on the qualitative ratio between the minimum concentration of compound required to produce a given protein in a cell versus the amount of protein produced by the cell at that concentration.
# The test compounds identified in the nonsense suppression assay (for convenience referred to herein as a compound of the invention) can be tested for biological activity using host cells containing or engineered to contain the target RNA element coupled to a functional readout system. For example, the lead compound can be tested in a host cell engineered to contain the RNA with the premature translation termination codon controlling the expression of a reporter gene. In this example, the lead compounds are assayed in the presence or absence of the RNA with the premature translation termination codon. Compounds that modulate premature translation termination and/or nonsense-mediated mRNA decay in vivo will result in increased expression of the full-length gene, i.e., past the premature termination codon. Alternatively, a phenotypic or physiological readout can be used to assess activity of the target RNA with the premature translation termination codon in the presence and absence of the lead compound. Both the in vitro and in vivo nonsense suppression assays used herein and as described in International Patent Publication WO 01/44516, which is incorporated by reference herein in its entirety, can be used to identify lead compounds and can also be used to determine an EC50 for the lead compounds.
# A stable cell line harboring the UGA nonsense-containing luciferase gene is treated with a test compound. Cells are grown in standard medium supplemented with 1% penicillin-streptomycin (P/S) and 10% fetal bovine serum (FBS) to 70% confluency and split 1:1 the day before treatment. The next day, cells are trypsinized and 40,000 cells are added to each well of a 96-well tissue culture dish. Serial dilutions of each compound are prepared to generate a six-point dose response curve spanning 2 logs (30 μM to 0.3 μM). The final concentration of the DMSO solvent remains constant at 1% in each well. Cells treated with 1% DMSO serve as the background standard, and cells treated with gentamicin serve as a positive control.
# [2] = tested on: lysosomal tripeptidyl-peptidase 1 (TPP-I); details: patient-derived LINCL cell line, compound heterozygous for Arg208Stop and a different rare nonsense mutation; Sleat et al. 2001; cited from earlier work
Compound,Activity [1],normal levels of TPP-I maximally restored [2]
"Nc1ncnc(N[C@@H]2C[C@H](CO)[C@@H](O)[C@H]2O)c1[N+](=O)[O-] [Compound 6, (1R,2S,3R,5R)-3-(6-Amino-5-nitro-pyrimidin-4-ylamino)-5-hydroxymethyl-cyclopentane-1,2-diol]",0,–
"Nc1ncnc(N[C@H]2C[C@@H](CO)[C@H](O)[C@@H]2O)c1[N+](=O)[O-] [Compound 7, (1S,2R,3S,5S)-3-(6-Amino-5-nitro-pyrimidin-4-ylamino)-5-hydroxymethyl-cyclopentane-1,2-diol]",0,–
"Nc1ncnc(N[C@H]2O[C@H](CO)[C@@H](O)[C@H]2O)c1[N+](=O)[O-] [Compound 22, 6-amino-5-nitro-4-(α-D-ribofuranosylamino)-pyrimidine]",***,–
"Nc1ncnc(N[C@@H]2O[C@H](COC(=O)c3ccccc3)[C@@H](OC(=O)c3ccccc3)[C@H]2OC(=O)c2ccccc2)c1[N+](=O)[O-] [Compound 24, 6-Amino-5-nitro-4-[(2,3,5-tri-O-benzoyl-β-D-ribofuranosyl)amino]pyrimidine]",**,–
"COC(=O)c1c(Cl)ncnc1N[C@@H]1O[C@H](CO)[C@@H](O)[C@H]1O [Compound 26, Methyl 6-chloro-4-(β-D-ribofuranosylamino)pyrimidine-5-carboxylate]",0,–
"COC(=O)c1c(N)ncnc1N[C@H]1O[C@H](CO)[C@@H](O)[C@H]1O [Compound 27, Methyl 6-amino-4-(α-D-ribofuranosylamino)pyrimidine-5-carboxylate]",*,–
gentamicin,–,approximately 7%

# — patent publication US7449570B2, “Use of nucleoside compounds for nonsense suppression and the treatment of genetic diseases” (PTC Therapeutics, Inc., priority 2002, dated 2008)
